Measured values as given in ChEMBL document CHEMBL4507276 (2021).

Experiments:
Settings in all cases: Compound concentration 1000.0 nM
[1] = molecular target: T1, Serine/threonine-protein kinase Chk1 (Homo sapiens) (UniProt O14757)
T1 sequence (whole entry): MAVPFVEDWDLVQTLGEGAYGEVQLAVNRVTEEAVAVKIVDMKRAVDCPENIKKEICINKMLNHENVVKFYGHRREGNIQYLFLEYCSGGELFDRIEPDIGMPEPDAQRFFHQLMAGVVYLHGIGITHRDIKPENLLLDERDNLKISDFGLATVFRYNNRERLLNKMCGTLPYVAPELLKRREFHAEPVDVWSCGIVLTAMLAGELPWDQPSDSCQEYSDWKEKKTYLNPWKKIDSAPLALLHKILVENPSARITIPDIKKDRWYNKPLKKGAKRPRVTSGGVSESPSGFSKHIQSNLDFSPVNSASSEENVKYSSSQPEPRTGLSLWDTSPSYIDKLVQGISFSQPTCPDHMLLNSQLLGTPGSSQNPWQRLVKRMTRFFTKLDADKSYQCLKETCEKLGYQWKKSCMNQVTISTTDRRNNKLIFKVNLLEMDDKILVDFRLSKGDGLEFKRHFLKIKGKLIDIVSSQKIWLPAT

[2] = molecular target: Tyrosine-protein kinase receptor UFO (Homo sapiens) (UniProt P30530)
Chain of Tyrosine-protein kinase receptor UFO (Homo sapiens) (P30530 whole entry): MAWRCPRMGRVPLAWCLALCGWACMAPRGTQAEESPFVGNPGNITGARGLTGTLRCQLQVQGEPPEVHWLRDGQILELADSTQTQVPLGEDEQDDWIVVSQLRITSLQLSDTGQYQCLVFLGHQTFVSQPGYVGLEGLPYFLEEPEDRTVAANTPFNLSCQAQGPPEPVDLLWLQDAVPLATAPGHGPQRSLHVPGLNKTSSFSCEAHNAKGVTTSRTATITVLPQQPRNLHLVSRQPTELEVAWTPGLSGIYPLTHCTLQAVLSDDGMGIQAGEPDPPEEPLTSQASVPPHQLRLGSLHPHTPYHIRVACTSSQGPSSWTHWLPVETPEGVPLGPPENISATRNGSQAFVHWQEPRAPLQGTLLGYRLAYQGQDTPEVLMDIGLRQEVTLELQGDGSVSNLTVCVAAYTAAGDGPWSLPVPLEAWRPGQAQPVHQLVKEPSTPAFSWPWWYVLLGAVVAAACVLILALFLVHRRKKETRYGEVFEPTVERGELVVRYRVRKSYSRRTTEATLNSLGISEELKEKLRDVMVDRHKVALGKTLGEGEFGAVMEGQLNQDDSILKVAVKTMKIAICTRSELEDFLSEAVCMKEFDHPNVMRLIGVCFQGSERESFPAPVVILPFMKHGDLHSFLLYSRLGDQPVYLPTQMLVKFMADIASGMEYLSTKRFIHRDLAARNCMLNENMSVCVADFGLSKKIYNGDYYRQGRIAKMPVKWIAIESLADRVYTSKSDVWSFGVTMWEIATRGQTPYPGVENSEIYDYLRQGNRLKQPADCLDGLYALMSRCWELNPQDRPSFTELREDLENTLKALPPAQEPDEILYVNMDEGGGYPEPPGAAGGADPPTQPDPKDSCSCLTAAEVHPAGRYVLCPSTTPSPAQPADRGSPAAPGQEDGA

[3] = molecular target: Cyclin-dependent kinase-like 5 (Homo sapiens) (UniProt O76039)
Chain of Cyclin-dependent kinase-like 5 (Homo sapiens) (O76039 whole entry): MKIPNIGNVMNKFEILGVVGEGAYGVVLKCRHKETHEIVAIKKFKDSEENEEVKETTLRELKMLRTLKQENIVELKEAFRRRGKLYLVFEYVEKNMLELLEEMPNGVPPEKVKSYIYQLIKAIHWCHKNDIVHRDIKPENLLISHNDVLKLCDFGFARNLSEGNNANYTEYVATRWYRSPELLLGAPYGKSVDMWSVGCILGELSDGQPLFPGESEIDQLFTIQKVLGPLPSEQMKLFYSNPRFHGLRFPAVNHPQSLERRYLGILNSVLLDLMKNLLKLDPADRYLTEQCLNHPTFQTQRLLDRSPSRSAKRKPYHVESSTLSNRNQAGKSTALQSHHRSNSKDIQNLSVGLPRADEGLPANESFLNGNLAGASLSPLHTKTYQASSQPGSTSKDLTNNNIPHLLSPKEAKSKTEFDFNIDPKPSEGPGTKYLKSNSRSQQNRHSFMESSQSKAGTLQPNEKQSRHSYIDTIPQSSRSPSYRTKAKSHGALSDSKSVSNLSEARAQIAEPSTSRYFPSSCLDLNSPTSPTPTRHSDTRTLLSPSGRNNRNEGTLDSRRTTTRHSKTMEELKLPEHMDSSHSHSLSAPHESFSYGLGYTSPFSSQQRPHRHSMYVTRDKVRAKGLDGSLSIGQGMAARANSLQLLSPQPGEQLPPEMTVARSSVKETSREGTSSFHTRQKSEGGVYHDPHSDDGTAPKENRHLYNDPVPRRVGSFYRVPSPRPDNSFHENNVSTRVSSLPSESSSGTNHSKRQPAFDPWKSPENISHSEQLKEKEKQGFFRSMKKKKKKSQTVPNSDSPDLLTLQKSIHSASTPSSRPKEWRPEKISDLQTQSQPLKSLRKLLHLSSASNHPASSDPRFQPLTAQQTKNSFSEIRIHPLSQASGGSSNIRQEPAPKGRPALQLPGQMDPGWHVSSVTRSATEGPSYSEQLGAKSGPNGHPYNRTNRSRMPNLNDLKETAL

[4] = molecular target: Membrane-associated tyrosine- and threonine-specific cdc2-inhibitory kinase (Homo sapiens) (UniProt Q99640)
Chain of Membrane-associated tyrosine- and threonine-specific cdc2-inhibitory kinase (Homo sapiens) (Q99640 whole entry): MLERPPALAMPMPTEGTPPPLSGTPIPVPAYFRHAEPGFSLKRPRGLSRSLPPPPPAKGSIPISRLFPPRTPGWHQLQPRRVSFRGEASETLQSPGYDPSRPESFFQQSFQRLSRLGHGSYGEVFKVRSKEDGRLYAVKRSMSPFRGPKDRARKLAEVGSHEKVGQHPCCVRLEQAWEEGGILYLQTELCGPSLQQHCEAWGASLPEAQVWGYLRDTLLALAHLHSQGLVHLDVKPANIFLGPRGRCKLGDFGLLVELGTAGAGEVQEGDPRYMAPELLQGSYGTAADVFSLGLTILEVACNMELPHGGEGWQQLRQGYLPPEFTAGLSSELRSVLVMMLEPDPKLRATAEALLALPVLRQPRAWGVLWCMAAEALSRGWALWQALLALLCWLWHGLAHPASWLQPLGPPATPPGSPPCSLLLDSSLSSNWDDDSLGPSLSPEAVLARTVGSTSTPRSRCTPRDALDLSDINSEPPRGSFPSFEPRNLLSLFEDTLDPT

[5] = molecular target: T2, Ephrin type-B receptor 3 (Homo sapiens) (UniProt P54753)
T2 sequence (whole entry): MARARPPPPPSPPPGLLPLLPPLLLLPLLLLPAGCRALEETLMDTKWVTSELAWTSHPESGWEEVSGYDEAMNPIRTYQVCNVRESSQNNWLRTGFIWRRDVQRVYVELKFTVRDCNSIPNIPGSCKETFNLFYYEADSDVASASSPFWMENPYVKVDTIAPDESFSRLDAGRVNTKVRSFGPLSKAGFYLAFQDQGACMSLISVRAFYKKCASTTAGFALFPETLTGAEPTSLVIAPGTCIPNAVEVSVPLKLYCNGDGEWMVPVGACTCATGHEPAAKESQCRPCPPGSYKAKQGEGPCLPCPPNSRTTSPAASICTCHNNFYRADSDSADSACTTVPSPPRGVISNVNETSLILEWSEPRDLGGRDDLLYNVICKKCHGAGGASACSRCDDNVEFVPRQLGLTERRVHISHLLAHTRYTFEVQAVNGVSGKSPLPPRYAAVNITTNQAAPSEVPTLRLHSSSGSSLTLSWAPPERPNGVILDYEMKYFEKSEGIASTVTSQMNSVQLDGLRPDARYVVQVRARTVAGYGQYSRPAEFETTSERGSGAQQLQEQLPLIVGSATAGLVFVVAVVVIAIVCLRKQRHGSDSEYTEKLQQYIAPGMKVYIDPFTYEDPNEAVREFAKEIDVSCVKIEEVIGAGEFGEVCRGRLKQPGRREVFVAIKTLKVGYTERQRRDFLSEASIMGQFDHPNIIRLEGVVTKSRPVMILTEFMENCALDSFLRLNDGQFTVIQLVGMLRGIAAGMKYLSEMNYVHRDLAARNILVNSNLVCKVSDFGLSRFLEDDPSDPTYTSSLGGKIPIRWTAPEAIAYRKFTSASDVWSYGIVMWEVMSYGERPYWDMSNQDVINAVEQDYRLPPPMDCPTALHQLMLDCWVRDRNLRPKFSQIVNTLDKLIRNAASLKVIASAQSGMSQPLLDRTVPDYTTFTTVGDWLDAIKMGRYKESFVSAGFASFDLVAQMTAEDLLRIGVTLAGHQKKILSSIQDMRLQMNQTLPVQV

[6] = molecular target: T3, Serine/threonine-protein kinase haspin (Homo sapiens) (UniProt Q8TF76)
T3 sequence (whole entry): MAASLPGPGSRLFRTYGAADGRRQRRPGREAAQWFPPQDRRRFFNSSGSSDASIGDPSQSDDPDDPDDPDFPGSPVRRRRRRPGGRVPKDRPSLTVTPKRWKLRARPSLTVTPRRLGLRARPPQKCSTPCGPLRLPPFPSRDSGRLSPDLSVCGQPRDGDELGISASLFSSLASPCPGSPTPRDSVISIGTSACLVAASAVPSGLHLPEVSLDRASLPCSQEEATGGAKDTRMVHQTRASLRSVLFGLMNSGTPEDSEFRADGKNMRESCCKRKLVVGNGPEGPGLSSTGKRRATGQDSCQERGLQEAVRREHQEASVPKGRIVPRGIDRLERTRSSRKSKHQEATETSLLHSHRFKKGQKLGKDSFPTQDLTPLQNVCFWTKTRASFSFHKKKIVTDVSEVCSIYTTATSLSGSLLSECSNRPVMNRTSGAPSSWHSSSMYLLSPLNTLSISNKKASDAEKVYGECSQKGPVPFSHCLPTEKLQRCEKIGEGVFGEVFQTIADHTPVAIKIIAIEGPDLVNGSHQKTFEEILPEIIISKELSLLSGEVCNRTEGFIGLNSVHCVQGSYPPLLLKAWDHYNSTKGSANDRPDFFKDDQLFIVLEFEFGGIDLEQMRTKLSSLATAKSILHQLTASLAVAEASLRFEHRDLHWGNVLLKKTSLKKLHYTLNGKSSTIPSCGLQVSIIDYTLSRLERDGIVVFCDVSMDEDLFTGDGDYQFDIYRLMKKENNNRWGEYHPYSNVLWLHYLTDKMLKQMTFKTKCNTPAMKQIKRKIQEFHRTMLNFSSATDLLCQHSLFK

[7] = molecular target: Myosin light chain kinase, smooth muscle (Homo sapiens) (UniProt Q15746)
Chain of Myosin light chain kinase, smooth muscle (Homo sapiens) (Q15746 whole entry): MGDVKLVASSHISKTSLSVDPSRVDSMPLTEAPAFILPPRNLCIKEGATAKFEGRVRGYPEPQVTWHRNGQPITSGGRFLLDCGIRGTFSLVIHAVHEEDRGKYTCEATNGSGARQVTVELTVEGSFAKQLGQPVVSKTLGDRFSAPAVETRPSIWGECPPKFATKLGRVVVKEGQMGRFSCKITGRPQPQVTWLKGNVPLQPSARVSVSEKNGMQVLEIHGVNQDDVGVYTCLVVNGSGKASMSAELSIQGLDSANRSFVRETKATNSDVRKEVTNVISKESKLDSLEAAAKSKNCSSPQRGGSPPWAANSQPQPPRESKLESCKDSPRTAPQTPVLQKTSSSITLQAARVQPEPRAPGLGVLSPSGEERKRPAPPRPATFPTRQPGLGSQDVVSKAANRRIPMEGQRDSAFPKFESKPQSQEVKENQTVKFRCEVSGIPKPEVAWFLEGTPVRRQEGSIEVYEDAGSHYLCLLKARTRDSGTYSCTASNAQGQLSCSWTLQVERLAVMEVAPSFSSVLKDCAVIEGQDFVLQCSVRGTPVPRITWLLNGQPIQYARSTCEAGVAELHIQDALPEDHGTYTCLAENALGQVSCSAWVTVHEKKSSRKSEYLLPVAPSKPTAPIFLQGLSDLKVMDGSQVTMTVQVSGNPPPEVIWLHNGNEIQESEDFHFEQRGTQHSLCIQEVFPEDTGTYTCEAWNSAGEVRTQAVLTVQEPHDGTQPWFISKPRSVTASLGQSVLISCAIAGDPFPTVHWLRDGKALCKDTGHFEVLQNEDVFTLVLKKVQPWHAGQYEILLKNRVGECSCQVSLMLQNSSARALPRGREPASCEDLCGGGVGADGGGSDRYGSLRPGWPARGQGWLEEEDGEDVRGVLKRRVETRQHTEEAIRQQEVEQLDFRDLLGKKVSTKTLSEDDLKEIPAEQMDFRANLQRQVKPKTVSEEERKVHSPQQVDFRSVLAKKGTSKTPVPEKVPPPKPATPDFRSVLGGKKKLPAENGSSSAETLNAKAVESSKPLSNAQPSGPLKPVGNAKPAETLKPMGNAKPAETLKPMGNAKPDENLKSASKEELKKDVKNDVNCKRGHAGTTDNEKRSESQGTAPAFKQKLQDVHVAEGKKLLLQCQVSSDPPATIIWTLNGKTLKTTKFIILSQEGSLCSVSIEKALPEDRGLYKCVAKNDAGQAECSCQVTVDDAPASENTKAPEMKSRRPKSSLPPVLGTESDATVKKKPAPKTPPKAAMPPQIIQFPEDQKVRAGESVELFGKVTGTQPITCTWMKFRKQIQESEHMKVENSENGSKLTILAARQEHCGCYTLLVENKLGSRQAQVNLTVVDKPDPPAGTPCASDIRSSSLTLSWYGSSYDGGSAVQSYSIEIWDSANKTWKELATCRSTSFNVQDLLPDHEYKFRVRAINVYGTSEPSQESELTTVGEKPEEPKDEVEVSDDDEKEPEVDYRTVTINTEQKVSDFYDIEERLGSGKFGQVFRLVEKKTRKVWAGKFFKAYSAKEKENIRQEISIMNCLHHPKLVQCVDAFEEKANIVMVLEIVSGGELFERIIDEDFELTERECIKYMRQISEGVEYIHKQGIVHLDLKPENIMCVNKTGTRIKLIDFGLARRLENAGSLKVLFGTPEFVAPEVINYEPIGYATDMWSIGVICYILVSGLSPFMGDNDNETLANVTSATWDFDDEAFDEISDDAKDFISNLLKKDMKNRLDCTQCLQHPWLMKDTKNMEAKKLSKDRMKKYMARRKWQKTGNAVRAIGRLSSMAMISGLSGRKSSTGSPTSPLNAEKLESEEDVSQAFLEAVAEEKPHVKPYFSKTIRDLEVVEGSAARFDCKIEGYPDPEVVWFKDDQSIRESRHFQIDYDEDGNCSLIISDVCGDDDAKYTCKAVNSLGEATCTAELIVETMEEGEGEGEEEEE

Measured: residual activity

CN(C)C(=O)Cn1cc(-c2nc(C3(c4ccc(-c5cnc(N)nc5)cc4)CC3)no2)cn1 [BI 0153]
inactive: [1] 100% | [2] 93% | [3] 82% | [4] 90% | [5] 95% | [6] 74% | [7] 72%

CN(C)C(=O)Cn1cc(-c2nc([C@@](C)(c3ccc(-c4cnc(N)nc4)cc3)C3CC3)no2)cn1 [BI 665915]
inactive: [1] 85% | [2] 98% | [3] 89% | [4] 88% | [5] 100% | [6] 100% | [7] 84%
